According to patent EP0319030A1, “Aminopropanol derivatives of 1,4:3,6-dianhydro-hexitol nitrates, processes for their preparation and their use as medicaments” (Heinrich Mack Nachf., priority 1987, dated 1989):
Marks after values point to notes of the source that are not given here.

Columns and labels:
Assay type in all cases: in vivo
Mice = experiment: Peroral tolerance in mice; conditions: mouse, in vivo
Text: Set forth below is data obtained on the compounds of Examples 17, 19 and 20 that illustrates the pharmacological action of the compounds of the present invention.

anesthetized rat = experiment: Lypressin-induced T-wave increase in the ECG (lypressin coronary spasm), method of M. Leitold et al.
Text: (§1) In particular, they have a pronounced cardiovascular action. On isolated strips of veins from dogs, they act against the K⁺-induced contraction in a lower concentration than on aorta strips. On isolated hearts from guinea pigs, they increase coronary flow as a function of the dose. On anesthetized rats, they prevent lypressin coronary spasm as a function of the dose and significiantly increase the survival rate of rats following acute cardiac infarction. On normotensive conscious dogs, they lower the systolic blood pressure for a period of 6-8 hours after oral administration. On artifically respirated anesthetized, thoraxotomized dogs, they reduce the mean arterial pressure, the left ventricular systolic pressure, the left ventricular end diastolic pressure and the pressure in the Arteria pulmonalis and reduce the peripheral vascular resistance. In contrast to the known organic nitrate esters, they also lead to a long-lasting reduction in the systolic blood pressure of spontaneously hypertensive rats. Such an action profile is not known for any of the substances of similar structure which have already been described.

conscious beagle dogs = experiment: Systolic blood pressure and heart rate following peroral administration; conditions: 6.0 mg/kg peroral, mean ± SEM
Text: as §1

rats = experiment: Survival rate after acute coronary ligature, method of I. Lepran et al.; conditions: 30.0 mg/kg orally 5 minutes before ligature
Text: as §1

anesthetized dogs = experiment: Cardiovascular actions following intra-venous administration, opened thorax and artificial respiration; conditions: opened thorax, artificial respiration
Text: as §1

With `COc1ccccc1N1CCN(CC(O)CO[C@H]2CO[C@H]3[C@@H]2OC[C@H]3O[N+](=O)[O-])CC1` (stereo partly shown) [Example 17, 2-O-<3-[4-(2-Methoxyphenyl)-piperazinyl]-2-hydroxypropyl>-isosorbide-5-nitrate] the “tolerance (clinical symptoms, fatal consequences)” value (Mice) was “without clinical symptoms and without fatal consequences”, the ED50 (anesthetized rat; Rattus norvegicus, po, 0.5 h, perorally 30 minutes before the lypressin injection, dose column in mg/kg) was 89.5 mg/kg and the “Duration of action at the ED50 dose” value (anesthetized rat; perorally at various times before the lypressin injection) was 2 h. The “HR (heart rate), Action of substance after 1 hours” value (conscious beagle dogs) was 101 ± 17 Bts/M, the “HR (heart rate), Action of substance after 2 hours” value (conscious beagle dogs) was 110 ± 16 Bts/M and the “HR (heart rate), Action of substance after 4 hours” value (conscious beagle dogs) was 89 ± 8 Bts/M. The “HR (heart rate), Action of substance after 6 hours” value (conscious beagle dogs) was 89 ± 5 Bts/M, the “HR (heart rate), Action of substance after 8 hours” value (conscious beagle dogs) was 85 ± 7 Bts/M and the “SBP (systolic blood pressure), Action of substance after 1 hours” value (conscious beagle dogs) was 91 ± 6 mmHg. For the same molecule, the “SBP (systolic blood pressure), Action of substance after 2 hours” value (conscious beagle dogs) was 89 ± 4 mmHg, the “SBP (systolic blood pressure), Action of substance after 4 hours” value (conscious beagle dogs) was 97 ± 5 mmHg and the “SBP (systolic blood pressure), Action of substance after 6 hours” value (conscious beagle dogs) was 101 ± 5 mmHg. For the same molecule, the “SBP (systolic blood pressure), Action of substance after 8 hours” value (conscious beagle dogs) was 115 ± 7 mmHg, the “Number of rats surviving after an acute coronary ligature, 24 hours” value (rats; control 21/80) was 17/20** and the “Number of rats surviving after an acute coronary ligature, 7 days” value (rats; control 21/80) was 17/20**. The “Number of rats surviving after an acute coronary ligature, 60 minutes” value (rats; control 23/80) was 17/20**, the “CO, Action of substance” value (anesthetized dogs; 30 µg/kg intra-venous) was 0.93 ± 0.07 l/M and the “CO, Change” value (anesthetized dogs; 30 µg/kg intra-venous) was 0.07 ± 0.04 l/M. The “CO, Duration of action” value (anesthetized dogs; 30 µg/kg intra-venous) was 6 ± 3 min, the “HR (heart rate), Action of substance” value (anesthetized dogs; 30 µg/kg intra-venous) was 219 ± 18 Bts/M and the “HR (heart rate), Change” value (anesthetized dogs; 30 µg/kg intra-venous) was 21 ± 18 Bts/M. For the same molecule, the “HR (heart rate), Duration of action” value (anesthetized dogs; 30 µg/kg intra-venous) was 6 ± 2 min, the “LVEDP (left ventricular enddiastolic pressure), Action of substance” value (“LVEDP … of substance” for short) (anesthetized dogs; 30 µg/kg intra-venous) was 6.2 ± 0.7 mmHg and the “LVEDP (left ventricular enddiastolic pressure), Change” value (shortened to “LVEDP … Change”) (anesthetized dogs; 30 µg/kg intra-venous) was 0.2 ± 0.03 mmHg. For the same molecule, the “LVEDP (left ventricular enddiastolic pressure), Duration of action” value (“LVEDP … of action” below) (anesthetized dogs; 30 µg/kg intra-venous) was 2.2 ± 1.3 min, the “LVSP (left ventricular systolic blood pressure), Action of substance” value (shortened to “LVSP … of substance”) (anesthetized dogs; 30 µg/kg intra-venous) was 131 ± 9 mmHg and the “LVSP (left ventricular systolic blood pressure), Change” value (shortened to “LVSP … Change”) (anesthetized dogs; 30 µg/kg intra-venous) was 19 ± 6 mmHg. The “LVSP (left ventricular systolic blood pressure), Duration of action” value (shortened to “LVSP … of action”) (anesthetized dogs; 30 µg/kg intra-venous) was 5 ± 3 min, the “MAP (mean arterial blood pressure), Action of substance” value (“MAP … of substance” below) (anesthetized dogs; 30 µg/kg intra-venous) was 83 ± 1 mmHg and the “MAP (mean arterial blood pressure), Change” value (“MAP … Change” below) (anesthetized dogs; 30 µg/kg intra-venous) was 23 ± 2 mmHg. The “MAP (mean arterial blood pressure), Duration of action” value (“MAP … of action” below) (anesthetized dogs; 30 µg/kg intra-venous) was 14 ± 1 min, the “PAP, Action of substance” value (anesthetized dogs; 30 µg/kg intra-venous) was 17.0 ± 4 mmHg and the “PAP, Change” value (anesthetized dogs; 30 µg/kg intra-venous) was 1.3 ± 0.5 mmHg. For the same molecule, the “PAP, Duration of action” value (anesthetized dogs; 30 µg/kg intra-venous) was 2 ± 0.3 min, the “SV, Action of substance” value (anesthetized dogs; 30 µg/kg intra-venous) was 52 ± 0.4 mL/s and the “SV, Change” value (anesthetized dogs; 30 µg/kg intra-venous) was 0.4 ± 0.2 mL/s. For the same molecule, the “SV, Duration of action” value (anesthetized dogs; 30 µg/kg intra-venous) was 2 ± 0.2 min, the “TPR (total peripheral vascular resistance), Action of substance” value (“TPR … of substance” for short) (anesthetized dogs; 30 µg/kg intra-venous) was 65 ± 12 mmHg/ml and the “TPR (total peripheral vascular resistance), Change” value (“TPR … Change” for short) (anesthetized dogs; 30 µg/kg intra-venous) was 23 ± 4 mmHg/ml. For the same molecule, the “TPR (total peripheral vascular resistance), Duration of action” value (“TPR … of action” for short) (anesthetized dogs; 30 µg/kg intra-venous) was over 14 min, the “dp/dtmax (maximum rate of increase in the left ventricular pressure), Action of substance” value (anesthetized dogs; 30 µg/kg intra-venous) was 3144 ± 166 mmHg/s and the “dp/dtmax (maximum rate of increase in the left ventricular pressure), Change” value (anesthetized dogs; 30 µg/kg intra-venous) was 424 ± 95 mmHg/s. The “dp/dtmax (maximum rate of increase in the left ventricular pressure), Duration of action” value (anesthetized dogs; 30 µg/kg intra-venous) was 8 ± 3 min, the “CO, Action of substance” value (anesthetized dogs; 300 µg/kg intra-venous) was 0.684 ± 0.137 l/M and the “CO, Change” value (anesthetized dogs; 300 µg/kg intra-venous) was 0.127 ± 0.046 l/M. The “CO, Duration of action” value (anesthetized dogs; 300 µg/kg intra-venous) was 73 ± 40 min, the “HR (heart rate), Action of substance” value (anesthetized dogs; 300 µg/kg intra-venous) was 206 ± 15 Bts/M and the “HR (heart rate), Change” value (anesthetized dogs; 300 µg/kg intra-venous) was 15 ± 13 Bts/M. The “HR (heart rate), Duration of action” value (anesthetized dogs; 300 µg/kg intra-venous) was 2.4 ± 1 min, the “LVEDP … of substance” value (anesthetized dogs; 300 µg/kg intra-venous) was 5.5 ± 0.8 mmHg and the “LVEDP … Change” value (anesthetized dogs; 300 µg/kg intra-venous) was 0.3 ± 0.1 mmHg. For the same molecule, the “LVEDP … of action” value (anesthetized dogs; 300 µg/kg intra-venous) was 5.6 ± 2 min, the “LVSP … of substance” value (anesthetized dogs; 300 µg/kg intra-venous) was 115 ± 4 mmHg and the “LVSP … Change” value (anesthetized dogs; 300 µg/kg intra-venous) was 39 ± 5 mmHg. The “LVSP … of action” value (anesthetized dogs; 300 µg/kg intra-venous) was 151 ± 24 min, the “MAP … of substance” value (anesthetized dogs; 300 µg/kg intra-venous) was 49 ± 3 mmHg and the “MAP … Change” value (anesthetized dogs; 300 µg/kg intra-venous) was 55 ± 6 mmHg. For the same molecule, the “MAP … of action” value (anesthetized dogs; 300 µg/kg intra-venous) was 157 ± 39 min, the “PAP, Action of substance” value (anesthetized dogs; 300 µg/kg intra-venous) was 18.2 ± 5 mmHg and the “PAP, Change” value (anesthetized dogs; 300 µg/kg intra-venous) was 1.5 ± 0.5 mmHg. The “PAP, Duration of action” value (anesthetized dogs; 300 µg/kg intra-venous) was 1.4 ± 0.1 min, the “SV, Action of substance” value (anesthetized dogs; 300 µg/kg intra-venous) was 3.7 ± 0.4 mL/s and the “SV, Change” value (anesthetized dogs; 300 µg/kg intra-venous) was 0.7 ± 0.3 mL/s. The “SV, Duration of action” value (anesthetized dogs; 300 µg/kg intra-venous) was 74 ± 43 min, the “TPR … of substance” value (anesthetized dogs; 300 µg/kg intra-venous) was 42 ± 2 mmHg/ml and the “TPR … Change” value (anesthetized dogs; 300 µg/kg intra-venous) was 42 ± 6 mmHg/ml. The “TPR … of action” value (anesthetized dogs; 300 µg/kg intra-venous) was 163 ± 16 min, the “dp/dtmax (maximum rate of increase in the left ventricular pressure), Action of substance” value (anesthetized dogs; 300 µg/kg intra-venous) was 2133 ± 310 mmHg/s and the “dp/dtmax (maximum rate of increase in the left ventricular pressure), Change” value (anesthetized dogs; 300 µg/kg intra-venous) was 1547 ± 423 mmHg/s. For the same molecule, the “dp/dtmax (maximum rate of increase in the left ventricular pressure), Duration of action” value (anesthetized dogs; 300 µg/kg intra-venous) was over 197 min, the “CO, Action of substance” value (anesthetized dogs; 3000 µg/kg intra-venous) was 0.405 ± 0.055 l/M and the “CO, Change” value (anesthetized dogs; 3000 µg/kg intra-venous) was 0.450 ± 0.025 l/M. For the same molecule, the “CO, Duration of action” value (anesthetized dogs; 3000 µg/kg intra-venous) was over 75 min, the “HR (heart rate), Action of substance” value (anesthetized dogs; 3000 µg/kg intra-venous) was 182 ± 17 Bts/M and the “HR (heart rate), Change” value (anesthetized dogs; 3000 µg/kg intra-venous) was 20 ± 17 Bts/M. The “HR (heart rate), Duration of action” value (anesthetized dogs; 3000 µg/kg intra-venous) was 1.4 ± 0.3 min, the “LVEDP … of substance” value (anesthetized dogs; 3000 µg/kg intra-venous) was 5.6 ± 1 mmHg and the “LVEDP … Change” value (anesthetized dogs; 3000 µg/kg intra-venous) was 0.6 ± 0.3 mmHg. For the same molecule, the “LVEDP … of action” value (anesthetized dogs; 3000 µg/kg intra-venous) was over 73 min, the “LVSP … of substance” value (anesthetized dogs; 3000 µg/kg intra-venous) was 113 ± 3 mmHg and the “LVSP … Change” value (anesthetized dogs; 3000 µg/kg intra-venous) was 48 ± 3 mmHg. The “LVSP … of action” value (anesthetized dogs; 3000 µg/kg intra-venous) was over 74 min, the “MAP … of substance” value (anesthetized dogs; 3000 µg/kg intra-venous) was 33 ± 2 mmHg and the “MAP … Change” value (anesthetized dogs; 3000 µg/kg intra-venous) was 67 ± 4 mmHg. The “MAP … of action” value (anesthetized dogs; 3000 µg/kg intra-venous) was over 114 min, the “PAP, Action of substance” value (anesthetized dogs; 3000 µg/kg intra-venous) was 18.2 ± 7 mmHg and the “PAP, Change” value (anesthetized dogs; 3000 µg/kg intra-venous) was 2.3 ± 0.8 mmHg. For the same molecule, the “PAP, Duration of action” value (anesthetized dogs; 3000 µg/kg intra-venous) was 2 ± 0.6 min, the “SV, Action of substance” value (anesthetized dogs; 3000 µg/kg intra-venous) was 3.0 ± 0.6 mL/s and the “SV, Change” value (anesthetized dogs; 3000 µg/kg intra-venous) was 2.6 ± 0.4 mL/s. The “SV, Duration of action” value (anesthetized dogs; 3000 µg/kg intra-venous) was over 75 min, the “TPR … of substance” value (anesthetized dogs; 3000 µg/kg intra-venous) was 44 ± 10 mmHg/ml and the “TPR … Change” value (anesthetized dogs; 3000 µg/kg intra-venous) was 74 ± 6 mmHg/ml. The “TPR … of action” value (anesthetized dogs; 3000 µg/kg intra-venous) was 24 ± 6 min, the “dp/dtmax (maximum rate of increase in the left ventricular pressure), Action of substance” value (anesthetized dogs; 3000 µg/kg intra-venous) was 2019 ± 123 mmHg/s and the “dp/dtmax (maximum rate of increase in the left ventricular pressure), Change” value (anesthetized dogs; 3000 µg/kg intra-venous) was 1828 ± 238 mmHg/s. For the same molecule, the “dp/dtmax (maximum rate of increase in the left ventricular pressure), Duration of action” value (anesthetized dogs; 3000 µg/kg intra-venous) was over 75 min.
